Results on two molecules are retold here after US11576979B2, “Pyrrolobenzodiazepine prodrugs and antibody conjugates thereof” (GENENTECH, INC., priority 2016, dated 2023).

Broadly, the IC50 is the concentration at which inhibition is half-maximal.

Experiment [1] concerns double strand DNA Oligos 1 and 2. Kind of experiment: DNA oligo binding, LC/MS/UV. Particulars: 100 uM compound, 100 uM DNA, 1 hour, 37 C. The protocol:
For DNA binding determination, the compounds were incubated at 100 μM with 100 μM double strand DNA Oligos 1 and 2 for 1 hour in 10 mM Bis-Tris, pH 7.1 at 37° C. The single strand DNA Oligos (5′-TATAGAATCTATA-3′ and 3′-ATATCTTAGATAT-5′) were synthesized at Genentech. The samples were analyzed by LC/MS/UV (210-450 nm) on Sciex TripleTOF 5600 on a Hypersil Gold C18 column (100×2.1, 1.9 Thermo Scientific). The column was eluted at 0.4 mL/min by a gradient of buffer A (50 mM hexafluoro-isopropanol and 15 mM diisopropylethylamine) to buffer B (50% A and 50% of 1:1 methanol:acetonitrile), 5% 0-0.5 min, 5-25% B 0.5-25 min, 25-95% B 25-40 min, and to 95% B 40-42 min. The % remaining was an average of the starting DNA oligos remaining in incubations (n=2). The products were characterized by LC/MS in a negative ESI ion mode.

The subject of experiment [2] is HL-60. Kind of experiment: Standard cell panel (Table 7B). It counts as cell-based. Particulars: Homo sapiens. The text has this: (§1) PBD dimer control 1 and PBD dimer control 2 were further evaluated in standard cell panels against a number of cell lines.
Experiment [3] deals with A2058. Nature of the experiment: Standard cell panel (Table 7B). Particulars: Homo sapiens. It counts as cell-based.
Text: as §1

The subject of experiment [4] is MDA-MB-231. Kind of experiment: Standard cell panel (Table 7B). It is filed as cell-based. The following applies: Homo sapiens.
Text: as §1

Experiment [5] relates to KPL-4. Kind of experiment: Standard cell panel (Table 7B). It is filed as cell-based. Particulars: KPL4.
Text: as §1

Experiment [6] deals with MES-SA/Dx5. Nature of the experiment: Standard cell panel (Table 7B). It counts as cell-based. Particulars: Homo sapiens.
Text: as §1

In experiment [7] the test system is MES-SA. Nature of the experiment: Standard cell panel (Table 7B). It counts as cell-based. Particulars: Homo sapiens.
Text: as §1

For experiment [8], the system named is DLD-1. Nature of the experiment: Standard cell panel (Table 7B). It counts as cell-based. The following applies: Homo sapiens.
Text: as §1

The subject of experiment [9] is HCT 116. Kind of experiment: Standard cell panel (Table 7B). It counts as cell-based. The following applies: Homo sapiens.
Text: as §1

Experiment [10] deals with BJAB/Pgp. Nature of the experiment: Standard cell panel (Table 7B). It counts as cell-based. The following applies: Homo sapiens.
Text: as §1

The subject of experiment [11] is BJAB. Nature of the experiment: Standard cell panel (Table 7B). It is filed as cell-based. The following applies: Homo sapiens.
Text: as §1

For experiment [12], the system named is KPL-4 Cell line. Nature of the experiment: Cell viability, DTD-activated quinone prodrugs (Example 15). It counts as cell-based. Particulars: KPL4, read-out: IC50 Potency (nM). The protocol:
(§2) The toxicity of PBD dimer diaphorase prodrug 1, PBD monomer diaphorase prodrug 2, PBD dimer control 1 and PBD monomer control 1 were evaluated against KPL-4 and WSU cell lines for cell viability. The KPL-4 cell line is was a high DTD cell line characterized by NQO1 nRPKM of 839 and the WSU cell line was a low DTD cell line characterized by a NQO1 nRPKM of 1.36. The IC50 ratios are based on the prodrug IC50 value relative to the PBD dimer control.

In experiment [13] the test system is WSU Cell line. The experiment is described as above. It counts as cell-based. Particulars: read-out: IC50 Potency (nM). The protocol:
as §2

The test system of experiment [14] is Igrov-1. Nature of the experiment: CellTiter-Glo toxicity, 4 days (Example 9). It counts as cell-based. The following applies: Homo sapiens, IGROV-1, 96 h, 4 days of drug incubation; Table 7A. The gist of the method: (§3)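 Cells were seeded in 384-well plates, dosed 24 h later and incubated with drug for 4 days. Viability was read as ATP luminescence by CellTiter-Glo and normalised to untreated controls. IC50 is the concentration giving 50% of maximum cell killing.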
A general note: ATP-based viability assays read luminescence as a measure of living cells.

Experiment [15] deals with UACC-257. Nature of the experiment: CellTiter-Glo toxicity, 4 days (Example 9). It counts as cell-based. The following applies: Homo sapiens, UACC-257, 96 h, 4 days of drug incubation; Table 7A. The gist of the method:
as §3

The subject of experiment [16] is SK-BR-3. Nature of the experiment: CellTiter-Glo toxicity, 3 days (Example 7). It is filed as cell-based. Particulars: Homo sapiens, SK-BR-3, 72 h, read-out: SK-BR-3 IC50 (nM). The protocol: The toxicity of PBD monomer disulfide prodrugs 1 to 4, PBD dimer disulfide prodrugs 1 and 4, PBD monomer control 1 and PBD dimer control 1 were evaluated against SK-BR-3 cell cultures. […] The HER2-positive breast cancer cell line, SK-BR-3, was obtained internally at Genentech after having been verified by sequence analysis. The cells were grown at 37 Celsius in DMEM+10% FBS supplemented with 2 mM L-glutamine for the duration of this assay. On the first day of the experiment, designated “Day −1”, SK-BR-3 cells were harvested from tissue culture flasks, counted, and then seeded into 96-well plates at a concentration of 7,500 cells per well. The next day, designated “Day 0”, cell culture media was removed from the cells and replaced with 100 uL of fresh media containing a serial dilution (1:3) of the compounds in Table 5 below. The plates were then returned to the 37 Celsius incubator and allowed to incubate for 3 days. On “Day 3” of the assay, the plates were removed from the incubator and allowed to equilibrate to room temperature before adding 100 uL of room-temperature CellTiter-Glo reagent (Promega). The plates were then agitated at 300 rpm for 10 minutes. The luminescence signal generated from this reaction was recorded on an Envision plate reader (Perkin-Elmer). The data were arranged in Excel (Microsoft) and graphed in Kaleidagraph (Synergy Software).

The test system of experiment [17] is SW 900. Nature of the experiment: Standard cell panel (Table 7B). The following applies: Homo sapiens, SW900. It counts as cell-based.
Text: as §1

For experiment [18], the system named is HCC1569 X2. Kind of experiment: Standard cell panel (Table 7B). It is filed as cell-based. Particulars: Homo sapiens.
Text: as §1

The subject of experiment [19] is HCC1937. Nature of the experiment: Standard cell panel (Table 7B). Particulars: Homo sapiens. It counts as cell-based.
Text: as §1

In experiment [20] the test system is T-47D. Kind of experiment: Standard cell panel (Table 7B). The following applies: Homo sapiens, T47D. It counts as cell-based.
Text: as §1

The test system of experiment [21] is NCI-H1781. Nature of the experiment: Standard cell panel (Table 7B). It counts as cell-based.
Text: as §1

`C=C1C[C@H]2CNc3cc(OCCCCCOc4cc5c(cc4OC)C(=O)N4CC(=C)C[C@H]4CN5)c(OC)cc3C(=O)N2C1` [PBD dimer control 2]: the “% DNA oligo remaining” value in experiment [1] stood at 100%. Besides, the IC50 in experiment [2] was 2.4 nM; in experiment [3], 5.3 nM; in experiment [4], 73.2 nM; in experiment [5], 67.4 nM; in [6], over 100 nM; in experiment [7], 10 nM. The IC50 was over 100 nM in [8], 15 nM in experiment [9], 53.7 nM in [10] and 4.9 nM in experiment [11].

`C=C1C[C@H]2C=Nc3cc(OCCCCCOc4cc5c(cc4OC)C(=O)N4CC(=C)C[C@H]4C=N5)c(OC)cc3C(=O)N2C1` [PBD dimer control 1]: the “% DNA oligo remaining” value in [1] is under 1%. Further, the IC50 in [12] came out at 2.09 nM; in experiment [13], 0.2 nM; in [14], 0.061 nM; in experiment [15], 0.95 nM; in experiment [16], 0.144 nM; in experiment [17], 0.078 nM. Further, the IC50 in experiment [5] came to 0.053 nM; in experiment [18], 0.097 nM; in experiment [19], 0.15 nM; in experiment [20], 0.032 nM; in experiment [6] it was 0.56 nM; in experiment [7], 0.028 nM. In addition, the IC50 came to 0.015 nM in experiment [11] and 0.011 nM in experiment [21].
